According to publication doi:10.1101/2025.10.05.680433v1 (biorxiv, 2025):

Experiments:
Test in all cases: ITC
Type in all cases: binding
IGP1^ECD [1] = biological target: IGP1^ECD (Arabidopsis thaliana, UniProt F4I3K3); settings: 10 mM Bis-Tris pH 6.0, 100 mM NaCl, 25 °C; LRR3-5 groove; 1:1 complex in crystal
IGP1^ECD [2] = biological target: IGP1^ECD (Arabidopsis thaliana, UniProt F4I3K3, W220A); settings: 10 mM Bis-Tris pH 6.0, 100 mM NaCl, 25 °C
IGP1^ECD [3] = biological target: IGP1^ECD (Arabidopsis thaliana, UniProt F4I3K3, C591A/C592A); settings: 10 mM Bis-Tris pH 6.0, 100 mM NaCl, 25 °C
IGP1^ECD [4] = biological target: IGP1^ECD (Arabidopsis thaliana, UniProt F4I3K3, C591D/C592D); settings: 10 mM Bis-Tris pH 6.0, 100 mM NaCl, 25 °C

Row | Kd (IGP1^ECD [1]) | Kd (IGP1^ECD [2]) | Kd (IGP1^ECD [3]) | Kd (IGP1^ECD [4]) | SMILES
1 | ~1.61 µM |  |  |  | OC[C@H]1O[C@@H](O[C@H]2[C@H](O)[C@@H](O)[C@H](O[C@H]3[C@H](O)[C@@H](O)C(O)O[C@@H]3CO)O[C@@H]2CO)[C@H](O)[C@@H](O)[C@@H]1O (stereo partly shown) [CEL3, cellotriose]
2 |  | ~18.6 µM | ~2.25 µM | ~17.9 µM | OC[C@H]1O[C@@H](O[C@H]2[C@H](O)[C@@H](O)[C@H](O[C@H]3[C@H](O)[C@@H](O)[C@H](O[C@H]4[C@H](O)[C@@H](O)C(O)O[C@@H]4CO)O[C@@H]3CO)O[C@@H]2CO)[C@H](O)[C@@H](O)[C@@H]1O (stereo partly shown) [CEL4, cellotetraose]
